{"source": "patent US12433292B2", "about": "“Method of production of controlled release silica nanoparticles for plant growth and/or defense enhancement” (ADOLPHE MERKLE INSTITUTE, UNIVERSITY OF FRIBOURG, priority 2019, dated 2025)", "key": {"[1]": {"tested_on": "Medicago sativa (alfalfa) seeds", "assay": "Alfalfa germination test", "experimental": "(§1) Independent 60 seed to 800 seed germination tests were conducted following standard seed testing protocols. Briefly, the seeds were placed on filter paper wettened with the active ingredient solution or nanoparticle suspension under investigation and germinated for 5-10 days. The infection of seeds with fungi and bacteria, and the germination rates were determined by counting the infested and germinated seeds, respectively. The germination speed was assessed by counting all fully emerged cotyledons. Blanks (water only) and dissolved silicon control (orthosilicic acid solution) were run in parallel to all experiments in 3-8 replicates. As a positive control, a solution of the commercially available fungicide tebuconazole was run in parallel. The SiO2-NP exposed plants were embedded in low viscosity epoxy resin for transmission electron microscopy imaging."}, "[2]": {"tested_on": "fungi and bacteria", "assay": "Alfalfa germination test: infection of seeds", "format": "in vivo, Medicago sativa", "details": "positive control", "experimental": "as §1"}}, "data": [{"molecule": "orthosilicic acid", "values": [{"measurement": "overall effect on fungal infection, cotyledon emergence, seed vigor and biomass", "setting": "[1]; germination and soil growth tests", "result": "performed equally or worse compared to the nanoparticles"}]}, {"molecule": "CC(C)(C)C(O)(CCc1ccc(Cl)cc1)Cn1cncn1", "note": "(stereo not drawn) [tebuconazole]", "values": [{"measurement": "cotyledon emergence", "setting": "[1]; 100 ppm", "result": "detrimental effects"}, {"measurement": "germination", "setting": "[1]; 100 ppm", "result": "detrimental effects"}, {"measurement": "adverse effects on germinating seeds", "setting": "[1]; 4000 ppm", "result": "some adverse effects"}, {"measurement": "toxicity to the seed", "setting": "[1]; same or comparable concentrations", "result": "exhibited toxicity to the seeds"}, {"measurement": "effect on fungi", "setting": "[2]", "result": "killing all fungi"}]}]}
